Measurements published in PubChem BioAssay AID2749 (The Scripps Research Institute Molecular Screening Center, 2010).
Activity calls are given as the source filed them. How the calls were made is not given here.

System: IEC-6 rat intestinal epithelial cells, cytotoxicity, luminescence
Assay: cytotoxicity in IEC-6 cells, late-stage follow-up, cytotoxicity control for KLF5 inhibitor project, cell-based, luminescence, dose response (AID 2749)

| SMILES | IC50 |
| --- | --- |
| CC(C)(C)c1ccc(C(=O)O/N=C(\N)c2ccccn2)cc1 | 25.5 µM (inactive) |
| CCCc1ccc(-c2ccc(/C=C/C(=O)O)cc2)nc1 | > 39.8 µM (inactive) |
| CC(C)(C)c1ccc(-c2noc(CCC(=O)Nc3cccnc3)n2)cc1 | > 39.8 µM (inactive) |
| CN1CCN(c2ccc(-c3ccc4ccccc4n3)cc2)CC1 | 16.2 µM (inactive) |
| COC(=O)c1ccc2nc(Nc3nc4ccc(F)cc4s3)sc2c1 | > 39.8 µM (inactive) |
| COc1ccc(OCc2cccc(C(=O)Nn3cc([N+](=O)[O-])cn3)c2)cc1 | > 39.8 µM (inactive) |
| CCCc1ccc(C(=O)O/N=C(\N)c2ccccn2)cc1 | > 39.8 µM (inactive) |
| CCOC(=O)c1sc(NC(=O)c2cc3ccccc3o2)nc1C | > 39.8 µM (inactive) |
| CN(C(=O)COC(=O)/C=C/c1cccc([N+](=O)[O-])c1)C1CCS(=O)(=O)C1 (centres undefined) | 34.8 µM (inactive) |
| CC(C)(C)C(=O)Nc1cc2nn(-c3ccccc3)nc2cc1Cl | > 39.8 µM (inactive) |
| c1ccc(-c2ccc(-c3nc(-c4ccccn4)no3)cc2)cc1 | 14.2 µM (inactive) |
| COc1ccc(C(=O)Nc2ccccc2C(=O)NN=Cc2ccc(O)c(OC)c2)cc1 | > 39.8 µM (inactive) |
| CCOC(=O)c1sc(NC(=O)c2ccc3ncsc3c2)nc1C | > 39.8 µM (inactive) |
| O=C(NCCc1ccccc1F)c1ccc2c(c1)OCCO2 | > 39.8 µM (inactive) |
| O=C(NCCc1ccccc1)c1ccc2c(c1)OCCCO2 | > 39.8 µM (inactive) |
| Cc1ccc2nc(NC(=O)CCCc3nc4ccccc4s3)sc2c1 | > 39.8 µM (inactive) |
| Cc1cc(C(=O)CN2C(=O)c3ccccc3S2(=O)=O)c(C)n1CC1CCCO1 (centres undefined) | > 39.8 µM (inactive) |
| COc1cccc(C=NNc2ccc(C(=O)O)cc2)c1O | > 39.8 µM (inactive) |
| CCOC(=O)c1sc(NC(=O)c2cc3c(s2)CCC(C)C3)nc1C (centres undefined) | > 39.8 µM (inactive) |
